In PubChem BioAssay AID1963425 (Molecular Pharmacology Branch, DTP, NCI, 2024):

Test system: 323965-272-R-J2-PDC complex spheroid growth, % test/control
Test: Anticancer human tumor 323965-272-R-J2-PDC patient-derived pancreatic carcinoma cell line growth inhibition [Asc]
Details: for IC50: curve of first compound; for viability, T/C: stronger effect = lower value
Outline: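 Complex spheroids combining tumor cells with HUVEC endothelial cells and human MSCs, at 37 degrees C, 5% CO2; agents tested alone or combined, half-log dilutions from at or near clinical Cmax, or 10 microM if Cmax unknown.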

[1] = second compound 0.00949 µM, first compound 0.00316 µM
[2] = second compound 0.00949 µM, first compound 0.01 µM
[3] = second compound 0.00949 µM, first compound 0.0316 µM
[4] = second compound 0.00949 µM, first compound 0.1 µM
[5] = second compound 0.00949 µM, first compound 0.316 µM
[6] = second compound 0.00949 µM, first compound 1 µM
[7] = second compound 0.03 µM, first compound 0.00316 µM
[8] = second compound 0.03 µM, first compound 0.01 µM
[9] = second compound 0.03 µM, first compound 0.0316 µM
[10] = second compound 0.03 µM, first compound 0.1 µM
[11] = second compound 0.03 µM, first compound 0.316 µM
[12] = second compound 0.03 µM, first compound 1 µM
[13] = second compound 0.0949 µM, first compound 0.00316 µM
[14] = second compound 0.0949 µM, first compound 0.01 µM
[15] = second compound 0.0949 µM, first compound 0.0316 µM
[16] = second compound 0.0949 µM, first compound 0.1 µM
[17] = second compound 0.0949 µM, first compound 0.316 µM
[18] = second compound 0.0949 µM, first compound 1 µM
[19] = second compound 0.3 µM, first compound 0.00316 µM
[20] = second compound 0.3 µM, first compound 0.01 µM
[21] = second compound 0.3 µM, first compound 0.0316 µM
[22] = second compound 0.3 µM, first compound 0.1 µM
[23] = second compound 0.3 µM, first compound 0.316 µM
[24] = second compound 0.3 µM, first compound 1 µM
[25] = second compound 0.949 µM, first compound 0.00316 µM
[26] = second compound 0.949 µM, first compound 0.01 µM
[27] = second compound 0.949 µM, first compound 0.0316 µM
[28] = second compound 0.949 µM, first compound 0.1 µM
[29] = second compound 0.949 µM, first compound 0.316 µM
[30] = second compound 0.949 µM, first compound 1 µM
[31] = second compound 3 µM, first compound 0.00316 µM
[32] = second compound 3 µM, first compound 0.01 µM
[33] = second compound 3 µM, first compound 0.0316 µM
[34] = second compound 3 µM, first compound 0.1 µM
[35] = second compound 3 µM, first compound 0.316 µM
[36] = second compound 3 µM, first compound 1 µM
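Also: compound exposure lasted 7 days starting three days after spheroid seeding.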
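For viability, T/C in this document: 100% = DMSO vehicle control wells with viability set relative to vehicle.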

With Cc1nc(N2CCC3(CC2)COC(C)C3N)c(CO)nc1Sc1ccnc(N)c1Cl (stereo unspecified) + CNC(C)C(=O)NC1CN(S(=O)(=O)c2cccc(S(=O)(=O)N3CCC4CCC(C(=O)NC(c5ccccc5)c5ccccc5)N4C(=O)C(NC(=O)C(C)NC)C3)c2)CCC2CCC(C(=O)NC(c3ccccc3)c3ccccc3)N2C1=O the IC50 (second compound 0.00316 µM) was 1000 nM, the IC50 (second compound 0.01 µM) was > 3000 nM and the IC50 (second compound 0.0316 µM) was > 3000 nM. The IC50 (second compound 0.1 µM) was 1480 nM, the IC50 (second compound 0.316 µM) was 1520 nM and the IC50 (second compound 1 µM) was 967 nM. It also gave a viability, T/C (second compound 0.00316 µM, first compound 0.00949 µM) of 109%, a viability, T/C (second compound 0.00316 µM, first compound 0.03 µM) of 84.6% and a viability, T/C (second compound 0.00316 µM, first compound 0.0949 µM) of 71.8%. It also gave a viability, T/C (second compound 0.00316 µM, first compound 0.3 µM) of 55.7%, a viability, T/C (second compound 0.00316 µM, first compound 0.949 µM) of 52.4% and a viability, T/C (second compound 0.00316 µM, first compound 3 µM) of 43.9%. It also gave a viability, T/C (second compound 0.01 µM, first compound 0.00949 µM) of 99.4%, a viability, T/C (second compound 0.01 µM, first compound 0.03 µM) of 94.3% and a viability, T/C (second compound 0.01 µM, first compound 0.0949 µM) of 66%. It also gave a viability, T/C (second compound 0.01 µM, first compound 0.3 µM) of 62%, a viability, T/C (second compound 0.01 µM, first compound 0.949 µM) of 52.6% and a viability, T/C (second compound 0.01 µM, first compound 3 µM) of 47.7%. It also gave a viability, T/C (second compound 0.0316 µM, first compound 0.00949 µM) of 110%, a viability, T/C (second compound 0.0316 µM, first compound 0.03 µM) of 97.4% and a viability, T/C (second compound 0.0316 µM, first compound 0.0949 µM) of 80%. For the same molecule, the viability, T/C (second compound 0.0316 µM, first compound 0.3 µM) was 58.1%, the viability, T/C (second compound 0.0316 µM, first compound 0.949 µM) was 57.9% and the viability, T/C (second compound 0.0316 µM, first compound 3 µM) was 49%. For the same molecule, the viability, T/C (second compound 0.1 µM, first compound 0.00949 µM) was 93.9%, the viability, T/C (second compound 0.1 µM, first compound 0.03 µM) was 96.6% and the viability, T/C (second compound 0.1 µM, first compound 0.0949 µM) was 80.9%. For the same molecule, the viability, T/C (second compound 0.1 µM, first compound 0.3 µM) was 65.6%, the viability, T/C (second compound 0.1 µM, first compound 0.949 µM) was 51.2% and the viability, T/C (second compound 0.1 µM, first compound 3 µM) was 47.4%. For the same molecule, the viability, T/C (second compound 0.316 µM, first compound 0.00949 µM) was 97.7%, the viability, T/C (second compound 0.316 µM, first compound 0.03 µM) was 85% and the viability, T/C (second compound 0.316 µM, first compound 0.0949 µM) was 86.7%. It also gave a viability, T/C (second compound 0.316 µM, first compound 0.3 µM) of 60.5%, a viability, T/C (second compound 0.316 µM, first compound 0.949 µM) of 58.2% and a viability, T/C (second compound 0.316 µM, first compound 3 µM) of 42.3%. It also gave a viability, T/C (second compound 1 µM, first compound 0.00949 µM) of 84.8%, a viability, T/C (second compound 1 µM, first compound 0.03 µM) of 80.4% and a viability, T/C (second compound 1 µM, first compound 0.0949 µM) of 71.9%. The viability, T/C (second compound 1 µM, first compound 0.3 µM) was 62%, the viability, T/C (second compound 1 µM, first compound 0.949 µM) was 50.1% and the viability, T/C (second compound 1 µM, first compound 3 µM) was 39.8%.

With CNC(C)C(=O)NC1CN(S(=O)(=O)c2cccc(S(=O)(=O)N3CCC4CCC(C(=O)NC(c5ccccc5)c5ccccc5)N4C(=O)C(NC(=O)C(C)NC)C3)c2)CCC2CCC(C(=O)NC(c3ccccc3)c3ccccc3)N2C1=O (stereo unspecified) + CCN1C(C(=O)NC23CCC(C(=O)O)(CC2)CC3)C(c2cccc(Cl)c2F)C2(C(=O)Nc3cc(Cl)ccc32)C12CCCCC2 the IC50 (second compound 0.00949 µM) was > 1000 nM, the IC50 (second compound 0.03 µM) was > 1000 nM and the IC50 (second compound 0.0949 µM) was > 1000 nM. For the same molecule, the IC50 (second compound 0.3 µM) was > 1000 nM, the IC50 (second compound 0.949 µM) was > 1000 nM and the IC50 (second compound 3 µM) was > 1000 nM. For the same molecule, the viability, T/C [1] was 110%, the viability, T/C [2] was 106% and the viability, T/C [3] was 96.8%. It also gave a viability, T/C [4] of 103%, a viability, T/C [5] of 109% and a viability, T/C [6] of 105%. The viability, T/C [7] was 102%, the viability, T/C [8] was 99% and the viability, T/C [9] was 105%. For the same molecule, the viability, T/C [10] was 105%, the viability, T/C [11] was 113% and the viability, T/C [12] was 106%. For the same molecule, the viability, T/C [13] was 118%, the viability, T/C [14] was 103% and the viability, T/C [15] was 103%. It also gave a viability, T/C [16] of 95%, a viability, T/C [17] of 106% and a viability, T/C [18] of 99.5%. The viability, T/C [19] was 123%, the viability, T/C [20] was 113% and the viability, T/C [21] was 107%. The viability, T/C [22] was 92.8%, the viability, T/C [23] was 104% and the viability, T/C [24] was 102%. It also gave a viability, T/C [25] of 112%, a viability, T/C [26] of 107% and a viability, T/C [27] of 96.2%. For the same molecule, the viability, T/C [28] was 104%, the viability, T/C [29] was 95.1% and the viability, T/C [30] was 88.5%. It also gave a viability, T/C [31] of 98.9%, a viability, T/C [32] of 109% and a viability, T/C [33] of 90.3%. It also gave a viability, T/C [34] of 101%, a viability, T/C [35] of 89.5% and a viability, T/C [36] of 95.2%.

With CCN1CCN(Cc2ccc(Nc3ncc(F)c(-c4cc(F)c5nc(C)n(C(C)C)c5c4)n3)nc2)CC1 + CCN1C(C(=O)NC23CCC(C(=O)O)(CC2)CC3)C(c2cccc(Cl)c2F)C2(C(=O)Nc3cc(Cl)ccc32)C12CCCCC2 the IC50 (second compound 0.00949 µM) was > 1000 nM, the IC50 (second compound 0.03 µM) was > 1000 nM and the IC50 (second compound 0.0949 µM) was > 1000 nM. For the same molecule, the IC50 (second compound 0.3 µM) was > 1000 nM, the IC50 (second compound 0.949 µM) was > 1000 nM and the IC50 (second compound 3 µM) was > 1000 nM. For the same molecule, the viability, T/C [1] was 107%, the viability, T/C [2] was 107% and the viability, T/C [3] was 105%. For the same molecule, the viability, T/C [4] was 86.2%, the viability, T/C [5] was 68.7% and the viability, T/C [6] was 77%. It also gave a viability, T/C [7] of 103%, a viability, T/C [8] of 104% and a viability, T/C [9] of 96.7%. For the same molecule, the viability, T/C [10] was 84.5%, the viability, T/C [11] was 69.5% and the viability, T/C [12] was 65.8%. The viability, T/C [13] was 118%, the viability, T/C [14] was 112% and the viability, T/C [15] was 92.2%. For the same molecule, the viability, T/C [16] was 80%, the viability, T/C [17] was 70.3% and the viability, T/C [18] was 65.2%. The viability, T/C [19] was 111%, the viability, T/C [20] was 104% and the viability, T/C [21] was 96.6%. The viability, T/C [22] was 78.9%, the viability, T/C [23] was 85.1% and the viability, T/C [24] was 77.1%. For the same molecule, the viability, T/C [25] was 99.8%, the viability, T/C [26] was 107% and the viability, T/C [27] was 95.9%. For the same molecule, the viability, T/C [28] was 85.8%, the viability, T/C [29] was 73.1% and the viability, T/C [30] was 77.5%. It also gave a viability, T/C [31] of 101%, a viability, T/C [32] of 115% and a viability, T/C [33] of 97%. For the same molecule, the viability, T/C [34] was 77%, the viability, T/C [35] was 78% and the viability, T/C [36] was 78.9%.
